Measured values from patent US5441983A, “Treatment of infection by enveloped virus with calix(N)arene compounds” (Genelabs Incorporated, priority 1992, dated 1995).
Values after ≈ are worked out from the molar mass of the structure shown.

What was measured:
[1] = tested on: HIV-HXB; experiment: Inhibition of syncytia formation, HIV-HXB (HTLV-IIIB); settings: Human immunodeficiency virus 1, 18 h, read-out: HIV-HXB ED100, complete inhibition of syncytia formation
[2] = tested on: HIV-RF-II; experiment: Inhibition of syncytia formation, HIV-RF-II; settings: Human immunodeficiency virus 1, 18 h, read-out: HIV-RF-II ED100, complete inhibition of syncytia formation
[3] = tested on: HSV-1; experiment: Plaque reduction assay, HSV-1, Vero cells; type: cell-based, HSV-1 (Kos-1); settings: Human alphaherpesvirus 1, Vero, plaque reduction, Vero cells
Description: (§1) used in Table 3 were further tested for activity against HSV infection in
(§2) a plaque reduction assay, as detailed in Example 6. Here Vero cells, after
(§3) overnight incubation, were exposed to serial dilutions of KY compound,
(§4) from 0.625-10 μg/ml, and HSV-1 or HSV-2 virus for two hours. After
(§5) washing to remove drug and extracellular virus, the cells were further
(§6) incubated for 2 days, then stained and counted for plaque formation.
(§7) Percent inhibition was determined by dividing plaques produced by total
(§8) number of plaques in infected, untreated controls. From the concentration
(§9) effect curve of plaque inhibition (expressed as percent of control), the
(§10) concentration of compound required to produce 50% plaque reduction,
(§11) IC50, was determined. The IC50 values for infection by HSV-1 and
(§12) HSV-2 infection is given in the right-hand columns in Table 3. With

[4] = tested on: HSV-2; experiment: Plaque reduction assay, HSV-2, Vero cells; type: cell-based, HSV-2 (333); settings: Human alphaherpesvirus 2, Vero
Description: as §1, §2, §3, §4, §5, §6, §7, §8, §9, §10, §11, §12

[5] = tested on: HSV-1; experiment: Inactivation of purified HSV-1 by compound, plaque number after serial dilution; settings: 10 μg/ml, duplicate

| IC50 [3] [µg/mL] | IC50 [4] [µg/mL] | SMILES | EC100 [1] [µg/mL] | EC100 [2] [µg/mL] | also measured |
| --- | --- | --- | --- | --- | --- |
|  |  | CCC(=O)Oc1c2c(S(=O)(=O)O)cc3cc(S(=O)(=O)O)c(c(OC(=O)CC)c13)Cc1c(S(=O)(=O)O)cc3cc(S(=O)(=O)O)c(c(OC(=O)CC)c3c1OC(=O)CC)Cc1c(S(=O)(=O)O)cc3cc(S(=O)(=O)O)c(c(OC(=O)CC)c3c1OC(=O)CC)Cc1c(S(=O)(=O)O)cc3cc(S(=O)(=O)O)c(c(OC(=O)CC)c3c1OC(=O)CC)C2 [KY-276] | 16 | 32 |  |
| 5.75 (≈ 3.97 µM) | 4.2 (≈ 2.9 µM) | O=S(=O)(NO)c1cc2cc(S(=O)(=O)NO)c3c(O)c2c(O)c1Cc1c(S(=O)(=O)NO)cc2cc(S(=O)(=O)NO)c(c(O)c2c1O)Cc1c(S(=O)(=O)NO)cc2cc(S(=O)(=O)NO)c(c(O)c2c1O)Cc1c(S(=O)(=O)NO)cc2cc(S(=O)(=O)NO)c(c(O)c2c1O)C3 [KY-359] | 32 | 63 |  |
|  |  | COc1c2c(S(=O)(=O)O)cc3cc(S(=O)(=O)O)c(c(OC)c13)C(C(=O)O)c1c(S(=O)(=O)O)cc3cc(S(=O)(=O)O)c(c(OC)c3c1OC)C(C(=O)O)c1c(S(=O)(=O)O)cc3cc(S(=O)(=O)O)c(c(OC)c3c1OC)C(C(=O)O)c1c(S(=O)(=O)O)cc3cc(S(=O)(=O)O)c(c(OC)c3c1OC)C2C(=O)O (stereo not drawn) [KY-284] | 16 | 32 |  |
|  |  | O=S(=O)(Nc1ccccc1)c1cc2cc(S(=O)(=O)Nc3ccccc3)c3c(O)c2c(O)c1Cc1c(S(=O)(=O)Nc2ccccc2)cc2cc(S(=O)(=O)Nc4ccccc4)c(c(O)c2c1O)Cc1c(S(=O)(=O)Nc2ccccc2)cc2cc(S(=O)(=O)Nc4ccccc4)c(c(O)c2c1O)Cc1c(S(=O)(=O)Nc2ccccc2)cc2cc(S(=O)(=O)Nc4ccccc4)c(c(O)c2c1O)C3 [KY-176] | 125 | 250 |  |
|  |  | O=C(O)CNS(=O)(=O)c1cc2cc(S(=O)(=O)NCC(=O)O)c3c(O)c2c(O)c1Cc1c(S(=O)(=O)NCC(=O)O)cc2cc(S(=O)(=O)NCC(=O)O)c(c(O)c2c1O)Cc1c(S(=O)(=O)NCC(=O)O)cc2cc(S(=O)(=O)NCC(=O)O)c(c(O)c2c1O)Cc1c(S(=O)(=O)NCC(=O)O)cc2cc(S(=O)(=O)NCC(=O)O)c(c(O)c2c1O)C3 [KY-357] | 32 | 63 |  |
| 8 (≈ 7.16 µM) | 11 (≈ 9.85 µM) | O=S(=O)(O)c1cc2c(O)c(c1)Cc1cc(S(=O)(=O)O)cc(c1O)Cc1cc(S(=O)(=O)O)cc(c1O)Cc1cc(S(=O)(=O)O)cc(c1O)Cc1cc(S(=O)(=O)O)cc(c1O)Cc1cc(S(=O)(=O)O)cc(c1O)C2 [Y-77] |  |  |  |
| 5 (≈ 6.71 µM) | 10 (≈ 13.4 µM) | O=S(=O)(O)c1cc2c(O)c(c1)Cc1cc(S(=O)(=O)O)cc(c1O)Cc1cc(S(=O)(=O)O)cc(c1O)Cc1cc(S(=O)(=O)O)cc(c1O)C2 [Y-49] |  |  |  |
|  |  | CCCC(=O)Oc1c2c(S(=O)(=O)O)cc3cc(S(=O)(=O)O)c(c(OC(=O)CCC)c13)Cc1c(S(=O)(=O)O)cc3cc(S(=O)(=O)O)c(c(OC(=O)CCC)c3c1OC(=O)CCC)Cc1c(S(=O)(=O)O)cc3cc(S(=O)(=O)O)c(c(OC(=O)CCC)c3c1OC(=O)CCC)Cc1c(S(=O)(=O)O)cc3cc(S(=O)(=O)O)c(c(OC(=O)CCC)c3c1OC(=O)CCC)C2 [KY-281] | 16 | 32 |  |
|  |  | CCCCCC(=O)Oc1c2c(S(=O)(=O)O)cc3cc(S(=O)(=O)O)c(c(OC(=O)CCCCC)c13)Cc1c(S(=O)(=O)O)cc3cc(S(=O)(=O)O)c(c(OC(=O)CCCCC)c3c1OC(=O)CCCCC)Cc1c(S(=O)(=O)O)cc3cc(S(=O)(=O)O)c(c(OC(=O)CCCCC)c3c1OC(=O)CCCCC)Cc1c(S(=O)(=O)O)cc3cc(S(=O)(=O)O)c(c(OC(=O)CCCCC)c3c1OC(=O)CCCCC)C2 [KY-291] | 16 | 32 |  |
|  |  | O=S(=O)(O)c1cc2cc(S(=O)(=O)O)c3c(O)c2c(O)c1Cc1c(S(=O)(=O)O)cc2cc(S(=O)(=O)O)c(c(O)c2c1O)Cc1c(S(=O)(=O)O)cc2cc(S(=O)(=O)O)c(c(O)c2c1O)Cc1c(S(=O)(=O)O)cc2cc(S(=O)(=O)O)c(c(O)c2c1O)C3 [KY 217] |  |  | Plaque number, dilution 1 ([5]; 0.3 pfu/cell): 2,8; Plaque number, dilution 10^1 ([5]; 0.3 pfu/cell): 3,3; Plaque number, dilution 1 ([5]; 3 pfu/cell): X,X; Plaque number, dilution 10^1 ([5]; 3 pfu/cell): X,X; Plaque number, dilution 10^2 ([5]; 3 pfu/cell): 6,0; Plaque number, dilution 10^3 ([5]; 3 pfu/cell): 5,0 |

| SMILES | IC50 [3] [µg/mL] | IC50 [4] [µg/mL] | EC100 [1] [µg/mL] | EC100 [2] [µg/mL] | also measured |
| --- | --- | --- | --- | --- | --- |
| Oc1c2c(S)cc3cc(S)c(c(O)c13)Cc1c(S)cc3cc(S)c(c(O)c3c1O)Cc1c(S)cc3cc(S)c(c(O)c3c1O)Cc1c(S)cc3cc(S)c(c(O)c3c1O)C2 [KY-171] | 2.5 (≈ 2.64 µM) | 3 (≈ 3.17 µM) | 125 | 250 |  |
